Measured values published in patent US9550775B2, “Substituted triazolopyridines and methods of use thereof” (GENENTECH, INC., priority 2013, dated 2017).

target: hNav1.7 (Homo sapiens (Human), UniProt Q15858); assay: Tritiated sulfonamide competitive binding to membranes from cells expressing hNav1.7 and the β1 subunit; settings: 100 pM [3H]compound, 18 h, room temperature; inactivated state of NaV1.7 membrane binding; read-out: NaV1.7 Ligand Binding Assay (IC50);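 further: displacement of the tritiated ligand from recombinant cell membranes, read by liquid scintillation counting of filter-bound radioactivity, nonspecific binding defined with 1 µM unlabelled compound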
Sequence (Q15858 other isoform, or with tags, fused parts or gaps): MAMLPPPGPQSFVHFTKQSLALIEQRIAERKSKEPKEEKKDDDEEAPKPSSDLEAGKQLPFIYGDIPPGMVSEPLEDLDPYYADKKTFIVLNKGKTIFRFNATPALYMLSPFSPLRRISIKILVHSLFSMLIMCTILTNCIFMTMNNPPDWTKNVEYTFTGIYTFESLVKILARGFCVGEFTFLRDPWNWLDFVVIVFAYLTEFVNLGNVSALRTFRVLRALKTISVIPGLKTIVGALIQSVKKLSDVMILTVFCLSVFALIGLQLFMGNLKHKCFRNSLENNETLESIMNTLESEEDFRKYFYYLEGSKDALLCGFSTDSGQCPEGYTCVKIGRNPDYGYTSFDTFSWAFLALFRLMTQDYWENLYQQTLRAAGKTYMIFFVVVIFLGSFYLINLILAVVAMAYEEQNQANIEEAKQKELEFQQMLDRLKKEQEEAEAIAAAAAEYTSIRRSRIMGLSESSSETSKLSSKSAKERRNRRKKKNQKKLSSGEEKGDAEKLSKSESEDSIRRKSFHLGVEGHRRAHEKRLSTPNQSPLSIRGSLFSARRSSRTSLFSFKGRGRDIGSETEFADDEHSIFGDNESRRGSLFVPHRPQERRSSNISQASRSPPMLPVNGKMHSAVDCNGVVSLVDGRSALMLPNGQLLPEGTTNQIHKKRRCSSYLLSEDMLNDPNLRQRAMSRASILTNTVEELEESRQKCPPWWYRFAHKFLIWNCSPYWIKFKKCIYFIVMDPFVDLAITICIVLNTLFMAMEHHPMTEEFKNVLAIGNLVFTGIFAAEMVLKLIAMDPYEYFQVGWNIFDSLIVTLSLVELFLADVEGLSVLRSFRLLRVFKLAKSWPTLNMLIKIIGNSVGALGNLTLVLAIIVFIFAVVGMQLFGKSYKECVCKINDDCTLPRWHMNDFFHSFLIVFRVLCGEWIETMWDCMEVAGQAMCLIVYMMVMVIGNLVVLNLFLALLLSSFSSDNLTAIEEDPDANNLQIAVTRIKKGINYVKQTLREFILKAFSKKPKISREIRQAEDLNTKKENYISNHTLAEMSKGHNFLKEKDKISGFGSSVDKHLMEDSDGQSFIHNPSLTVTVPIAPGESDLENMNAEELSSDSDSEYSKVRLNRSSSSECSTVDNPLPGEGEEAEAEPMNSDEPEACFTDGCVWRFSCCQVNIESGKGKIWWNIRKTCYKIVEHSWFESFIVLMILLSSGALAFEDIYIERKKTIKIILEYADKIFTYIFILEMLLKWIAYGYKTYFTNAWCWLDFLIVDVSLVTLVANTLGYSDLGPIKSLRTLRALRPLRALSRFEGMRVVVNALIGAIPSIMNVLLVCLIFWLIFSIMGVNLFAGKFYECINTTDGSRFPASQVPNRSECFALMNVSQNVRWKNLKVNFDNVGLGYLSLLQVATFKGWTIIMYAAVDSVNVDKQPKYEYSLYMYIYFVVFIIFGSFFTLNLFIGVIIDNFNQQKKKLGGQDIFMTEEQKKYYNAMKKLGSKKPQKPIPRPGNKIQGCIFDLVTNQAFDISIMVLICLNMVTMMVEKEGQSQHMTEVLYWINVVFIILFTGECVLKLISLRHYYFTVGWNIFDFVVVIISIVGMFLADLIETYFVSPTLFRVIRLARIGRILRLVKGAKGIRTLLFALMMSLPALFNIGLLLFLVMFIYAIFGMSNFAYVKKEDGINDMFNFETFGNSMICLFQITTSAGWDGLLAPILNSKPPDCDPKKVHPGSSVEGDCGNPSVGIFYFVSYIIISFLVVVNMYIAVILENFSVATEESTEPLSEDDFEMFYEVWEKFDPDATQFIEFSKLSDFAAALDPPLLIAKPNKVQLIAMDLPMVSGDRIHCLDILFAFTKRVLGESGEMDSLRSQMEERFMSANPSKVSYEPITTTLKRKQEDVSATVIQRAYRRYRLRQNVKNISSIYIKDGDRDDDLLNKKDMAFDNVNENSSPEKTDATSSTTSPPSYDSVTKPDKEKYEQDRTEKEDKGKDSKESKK
Sequence (Q07699 19-218 partner): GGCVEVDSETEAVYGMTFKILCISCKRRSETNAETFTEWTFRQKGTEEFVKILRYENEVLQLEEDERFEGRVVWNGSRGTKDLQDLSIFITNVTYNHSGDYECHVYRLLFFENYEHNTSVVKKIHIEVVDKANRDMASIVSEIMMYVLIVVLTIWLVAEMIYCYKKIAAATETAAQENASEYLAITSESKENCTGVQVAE

Compound	IC50
C=C(C)c1cn2c(NS(C)(=O)=O)nnc2cc1OCC12CC3CC(CC(C3)C1)C2 [Example 63, N-(7-((3r,5r,7r)-adamantan-1-ylmethoxy)-6-(prop-1-en-2-yl)-[1,2,4]triazolopyridin-3-yl)methanesulfonamide]	51 nM
CC1(C)C2CCC1(C)[C@H](Oc1cc3nnc(NS(C)(=O)=O)n3cc1C1CC1)C2 (stereo in doubt) [Example 31, N-(6-cyclopropyl-7-(((1S,2R,4R)-1,7,7-trimethylbicyclo-[2.2.1]heptan-2-yl)oxy)-[1,2,4]triazolo[4,3-a]pyridin-3-yl)methanesulfonamide]	260 nM
CC1(C)[C@H]2CC[C@H](COc3cc4nnc(NS(C)(=O)=O)n4cc3C3CC3)[C@@H]1C2 [Example 28, N-(6-cyclopropyl-7-(((1S,2S,5S)-6,6-dimethylbicyclo[3.1.1]heptan-2-yl)methoxy)-[1,2,4]triazolo[4,3-a]pyridin-3-yl)methanesulfonamide]	2.6 nM
CC1(C)[C@H]2CC[C@H](COc3cc4nnc(NS(=O)(=O)N5CCC5)n4cc3C3CC3)[C@@H]1C2 [Example 30]	6.75 nM
CS(=O)(=O)Nc1nnc2cc(OC[C@H]3CC[C@H](C(F)(F)F)CC3)c(C3CC3)cn12 [Example 68, N-(6-cyclopropyl-7-(((trans)-4-(trifluoromethyl)cyclohexyl)methoxy)-[1,2,4]triazolo[4,3-a]pyridin-3-yl)methanesulfonamide]	23 nM
C=C(C)c1cn2c(NS(C)(=O)=O)nnc2cc1OCC12CC3CC(CC(C3)C1)C2 [Example 8, N-(7-(adamantan-1-ylmethoxy)-6-(prop-1-en-2-yl)-[1,2,4]-triazolo[4,3-a]pyridin-3-yl)methanesulfonamide]	51.2 nM

The next lines start with the values.

IC50	Compound
7 nM	Cc1cc(Cl)cc(OCc2cc3nnc(NS(C)(=O)=O)n3cc2C2CC2)c1 [Example 102, N-(7-((3-chloro-5-methylphenoxy)methyl)-6-cyclopropyl-[1,2,4]triazolo[4,3-a]pyridin-3-yl)methanesulfonamide]
6 nM	Cc1cc(Cl)cc(OCc2cc3nnc(NS(=O)(=O)C4CC4)n3cc2C2CC2)c1 [Example 103, N-(7-((3-chloro-5-methylphenoxy)methyl)-6-cyclopropyl-[1,2,4]triazolo[4,3-a]pyridin-3-yl)cyclopropanesulfonamide]
7 nM	CC1(S(=O)(=O)Nc2nnc3cc(OCC45CC6CC(CC(C6)C4)C5)c(C4CC4)cn23)CC1 [Example 74, N-(7-((3r,5r,7r)-adamantan-1-ylmethoxy)-6-cyclopropyl-[1,2,4]triazolo[4,3-a]pyridin-3-yl)-1-methylcyclopropane-1-sulfonamide]
13 nM	C[C@@H](c1cc(Cl)cc(Cl)c1)N1CCC(C)(COc2cc3nnc(NS(C)(=O)=O)n3cc2C2CC2)CC1 [Example 117, (S)—N-(6-cyclopropyl-7-((1-(1-(3,5-dichlorophenyl)ethyl)-4-methylpiperidin-4-yl)methoxy)-[1,2,4]triazolo[4,3-a]pyridin-3-yl)methanesulfonamide]
16 nM	CC1(COc2cc3nnc(NS(C)(=O)=O)n3cc2C2CC2)CCN(C(c2ccccc2)c2ccccc2)CC1 [Example 116, N-(7-((1-benzhydryl-4-methylpiperidin-4-yl)methoxy)-6-cyclopropyl-[1,2,4]triazolo[4,3-a]pyridin-3-yl)methanesulfonamide]
2 nM	CC12CC3(C)CC(C)(C1)CC(COc1cc4nnc(NS(C)(=O)=O)n4cc1C1CC1)(C2)C3 [Example 122, N-(6-cyclopropyl-7-((3,5,7-trimethyladamantan-1-yl)methoxy)-[1,2,4]triazolo[4,3-a]pyridin-3-yl)methanesulfonamide]
9 nM	CS(=O)(=O)Nc1nnc2cc(OCCC34CC5CC(CC(C5)C3)C4)c(C3CC3)cn12 [Example 76, N-(7-(2-43r,5r,7r)-adamantan-1-yl)ethoxy)-6-cyclopropyl-[1,2,4]triazolo[4,3-a]pyridin-3-yl)methanesulfonamide]
